# Test results: patent publication US6765129B1, “Overexpression of a DNA sequence coding for a 1-desoxy-d-xylulose-5-phosphate reductoisomerase in plants” (BASF Aktiengesellschaft, priority 1999, dated 2004)
# Legend:
# barley seedlings = assay: plant assay: pigment neogenesis in etiolated barley seedlings; format: in vivo; conditions: barley seedlings subjected to fosmidomycin treatment, FIG. 8
# Text: Since this biosynthetic pathway is a metabolic pathway which is exclusively located in the chloroplasts, it offers optimal target enzymes for the development of inhibitors. Since, according to current knowledge, no enzyme which is identical with, or similar to, Arabidopsis thaliana DXPRI is present in other higher organisms, it can be assumed that inhibitors should have a very specific action on plants. The site of action of an inhibitor, namely fosmidomycin (3-(N-formyl-N-hydroxyamino)propylphosphonic acid; Fujisawa Pharmaceutical Co.) was identified as being a DXPRI. […] The following abbreviations were used in FIG. 7: DOX=1-deoxy-D-xylulose, ME=methylerythritol. The same action is found in a plant assay in which barley seedlings are subjected to fosmidomycin treatment and then examined for their chlorophyll and carotenoid content.
# FIG. 8. Effect of fosmidomycin on pigment neogenesis in etiolated barley seedlings.
# [1] = test system: Arabidopsis thaliana DXPRI; assay: DXPRI enzyme test (heterologously expressed in E. coli, TLC/autoradiography of 14C product); format: biochemical
# Method: The transgenic strain was incubated in the growth medium “2×YT” (per 1 l: Bacto-tryptone 16 g, yeast extract 10 g, NaCl 5 g). The cells were grown at 37° C. to an OD560 nm of 0.6. After IPTG (1 MM) had been added, they were cultured for a further 10 minutes at 37° C. and then for a further 4 hours at 22° until they were harvested. The cells were centrifuged off and washed in 1% NaCl. After the cells had been disrupted (50 to 500 ml of cell culture (OD560 nm of 1.0) by means of a French press, a crude protein extract was used for enzyme tests (in 4 ml of extraction buffer (Tris/HCl (pH 7.5) 100 mM, MgCl2 5 mM, DTT 2 mM, PMSF 0.1 mM). For storage, the crude extracts together with 20% of glycerol were frozen at −20° C.
# For the enzyme test, 15 μl (diluted to 1 to 7 mg of protein/ml) of protein extract were incubated for 30 minutes at 30° C. with MnCl2 (1 mM), NaF (5 mM), NADPH2 (0.5 mM) and ^14C-1-deoxy-D-xylulose-5-phosphate (0.25 mM, 3 kBq). The reaction was stopped at 100° C. (30 seconds) by adding CaCl2 (to 100 mM) and alkaline phosphatase (0.5 units). The product was dephosphorylated for 2 hours at 30° C. Detection was carried out by subjecting the product to separation by thin-layer chromatography on silica gel 60 (Merck) with acetone/ethyl acetate/water (50+50+2) with subsequent evaluation by Instant Imager. […]
# mevalonate formation = conditions: cited from earlier work
Compound,carotenoid content (barley seedlings),chlorophyll content (barley seedlings),"inhibition of the enzymatic activity of DXPRI ([1]; biochemical assay, FIG. 7)","formation of ME (methylerythritol) ([1]; fosmidomycin at various concentrations, crude protein extract, 14C-1-deoxy-D-xylulose-5-phosphate substrate)",sterol biosynthesis in the cytoplasma (mevalonate formation; cytoplasma),prenyl lipid formation in the plastids (mevalonate formation; plastids)
"O=CN(O)CCCP(=O)(O)O [fosmidomycin, 3-(N-formyl-N-hydroxyamino)propylphosphonic acid]",greatly reduced,greatly reduced,efficient inhibition,inhibited efficiently,,
mevinolin,,,,,inhibition,remains unaffected
